What was measured:
Histamine H2 receptor = Histamine H2 receptor (Homo sapiens, UniProt P25021); experiment: Receptor-based pharmacological activity, antagonist; type: biochemical; details: for IC50: read-out: RC50 (IC50)
Procedure: (§1) Methods for this study have been previously described (Venn-Watson, S., Lumpkin, R., Dennis, E. A. Efficacy of dietary odd-chain saturated fatty acid pentadecanoic acid parallels broad associated health benefits in humans: could it be essential? Sci Rep 10:8161 (2020)). Significant activities of pentadecanoylcarnitine were those tagged as having maximum pharmacological activities that were greater than or equal to 70% that of the internal control between the concentrations of 1 to 20 μM. Significant pharmacological activities caused by pentadecanoylcarnitine were compared with results from the same assays using pentadecanoic acid (C15:0).

Histamine H1 receptor = Histamine H1 receptor (Homo sapiens, UniProt P35367); experiment: as above; type: biochemical; details: for IC50: read-out: RC50 (IC50)
Procedure: as §1

Dopamine receptor D1 = Dopamine receptor D1 (Homo sapiens, UniProt P21728); experiment: as above; type: biochemical; details: for IC50: read-out: RC50 (IC50)
Procedure: as §1

breast cancer cells = details: cited from earlier work
[1] = system: AMP-activated protein kinase (AMPK); details: cited from earlier work
[2] = system: diet-induced obese mice modeling type 2 diabetes; details: daily oral, approximately 12 weeks; cited from earlier work
mitochondrial function = details: cited from earlier work
[3] = system: peroxisome proliferator-activated receptor (PPAR) α/δ; details: cited from earlier work
red blood cell membranes = details: cited from earlier work
[4] = system: human cell systems mimicking various disease states; details: cited from earlier work
[5] = system: in vivo model of nonalcoholic fatty liver disease; details: daily supplementation over 11 weeks; cited from earlier work
MyoF cell system = experiment: Human primary cell phenotypic profiling, MyoF cell system (wound healing, matrix remodeling, fibrosis); type: cell-based; details: 6.7 μM stated for pentadecanoylcarnitine
Procedure: (§2) Methods for this human primary cell phenotypic profiling study were those previously described (Venn-Watson, S., Lumpkin, R., Dennis, E. A. Efficacy of dietary odd-chain saturated fatty acid pentadecanoic acid parallels broad associated health benefits in humans: could it be essential? Sci Rep 10:8161 (2020)). Significant activities of pentadecanoylcarnitine were those that were equal to or greater than 0.1|log 10| at 6.7 μM. Biomarkers with significant changes caused by pentadecanoylcarnitine were compared with results from the same study using pentadecanoic acid (C15:0).

BE3C cell system = experiment: Human primary cell phenotypic profiling, BE3C cell system (COPD, lung inflammation); type: cell-based; details: 6.7 μM stated for pentadecanoylcarnitine
Procedure: as §2

HDF3CGF cell system = experiment: Human primary cell phenotypic profiling, HDF3CGF cell system (fibrosis, chronic inflammation); type: cell-based; details: 6.7 μM stated for pentadecanoylcarnitine
Procedure: as §2

KF3CT cell system = experiment: Human primary cell phenotypic profiling, KF3CT cell system (dermatitis, psoriasis); type: cell-based; details: 6.7 μM stated for pentadecanoylcarnitine
Procedure: as §2

SAg cell system = experiment: Human primary cell phenotypic profiling, SAg cell system (chronic inflammation, autoimmune disease); type: cell-based; details: 6.7 μM stated for pentadecanoylcarnitine
Procedure: as §2

CASM3C cell system = experiment: Human primary cell phenotypic profiling, CASM3C cell system (cardiovascular inflammation, restenosis); type: cell-based; details: 6.7 μM stated for pentadecanoylcarnitine
Procedure: as §2

/IMphg cell system = experiment: Human primary cell phenotypic profiling, /IMphg cell system (chronic inflammation, restenosis, cardiovascular disease); type: cell-based; details: 6.7 μM stated for pentadecanoylcarnitine
Procedure: as §2

4H cell system = experiment: Human primary cell phenotypic profiling, 4H cell system (autoimmunity, allergy, asthma); type: cell-based; details: 6.7 μM stated for pentadecanoylcarnitine, NS = not significant
Procedure: as §2

LPS cell system = experiment: Human primary cell phenotypic profiling, LPS cell system (chronic inflammation, cardiovascular disease); type: cell-based; details: 6.7 μM stated for pentadecanoylcarnitine
Procedure: as §2

[6] = Antagonist, positive control Tiotidine
[7] = Antagonist, positive control Mepyramine
[8] = Antagonist, positive control SCH 39166

Sequence of Histamine H1 receptor (P35367 whole entry): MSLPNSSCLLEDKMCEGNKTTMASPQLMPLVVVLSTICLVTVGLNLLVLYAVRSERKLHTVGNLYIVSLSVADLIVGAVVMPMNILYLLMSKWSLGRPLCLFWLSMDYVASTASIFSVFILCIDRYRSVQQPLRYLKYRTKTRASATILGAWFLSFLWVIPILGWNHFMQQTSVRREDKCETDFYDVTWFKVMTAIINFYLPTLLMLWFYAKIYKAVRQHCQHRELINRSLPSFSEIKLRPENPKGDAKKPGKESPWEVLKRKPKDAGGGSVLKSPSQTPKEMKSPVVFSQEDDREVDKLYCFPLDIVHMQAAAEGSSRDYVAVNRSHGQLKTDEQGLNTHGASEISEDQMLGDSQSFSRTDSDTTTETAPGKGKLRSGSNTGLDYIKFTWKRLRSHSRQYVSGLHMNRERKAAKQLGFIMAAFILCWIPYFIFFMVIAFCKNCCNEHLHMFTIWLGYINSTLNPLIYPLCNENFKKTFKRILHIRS
Sequence of Dopamine receptor D1 (P21728 whole entry, species assumed): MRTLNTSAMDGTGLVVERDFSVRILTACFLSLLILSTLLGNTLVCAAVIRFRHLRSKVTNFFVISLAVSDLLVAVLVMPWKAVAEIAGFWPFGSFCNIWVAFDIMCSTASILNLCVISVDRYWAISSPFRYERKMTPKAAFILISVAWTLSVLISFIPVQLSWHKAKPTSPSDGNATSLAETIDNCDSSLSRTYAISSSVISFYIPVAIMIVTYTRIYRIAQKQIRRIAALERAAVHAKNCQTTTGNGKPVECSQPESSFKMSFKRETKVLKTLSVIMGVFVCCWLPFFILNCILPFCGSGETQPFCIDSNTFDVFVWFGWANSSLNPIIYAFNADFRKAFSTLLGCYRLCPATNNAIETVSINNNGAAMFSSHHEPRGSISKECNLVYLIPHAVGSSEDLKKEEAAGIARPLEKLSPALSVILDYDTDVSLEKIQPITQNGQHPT
Sequence of Histamine H2 receptor (P25021 whole entry): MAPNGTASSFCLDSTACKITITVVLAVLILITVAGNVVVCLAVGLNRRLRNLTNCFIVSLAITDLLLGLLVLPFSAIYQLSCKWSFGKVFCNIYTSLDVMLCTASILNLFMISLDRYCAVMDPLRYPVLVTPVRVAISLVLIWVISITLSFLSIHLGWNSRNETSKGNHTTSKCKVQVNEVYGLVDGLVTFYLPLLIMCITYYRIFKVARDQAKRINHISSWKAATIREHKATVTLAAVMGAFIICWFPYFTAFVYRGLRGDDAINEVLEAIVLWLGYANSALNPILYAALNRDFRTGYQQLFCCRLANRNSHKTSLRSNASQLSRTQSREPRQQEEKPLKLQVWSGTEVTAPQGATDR

What does the source list for `CCCCCCCCCCCCCCC(=O)O` [Pentadecanoic acid (C15:0), Pentadecanoic acid]?
Emax (Histamine H2 receptor; Antagonist, positive control Tiotidine, 1 to 20 μM, read-out: Max Response (%) Compared to Positive Control): 2%; IC50 (Histamine H2 receptor; [6]): > 20 µM; Emax (Histamine H1 receptor; Antagonist, positive control Mepyramine, 1 to 20 μM, read-out: Max Response (%) Compared to Positive Control): 5%; IC50 (Histamine H1 receptor; [7]): > 20 µM; Emax (Dopamine receptor D1; Antagonist, positive control SCH 39166, 1 to 20 μM, read-out: Max Response (%) Compared to Positive Control): 4%; IC50 (Dopamine receptor D1; [8]): > 20 µM; Effect on proliferation of breast cancer cells (breast cancer cells): decrease; AMPK activity [1]: activator; Body weight gain compared to non-supplemented controls [2]: lower; Cholesterol compared to non-supplemented controls [2]: lower; Glucose compared to non-supplemented controls [2]: lower; Pro-inflammatory cytokines compared to non-supplemented controls [2]: lower; Effect on mitochondrial function (mitochondrial function): repair; PPAR α/δ agonist activity [3]: dual, partial; Effect on stability of red blood cell membranes (red blood cell membranes): improve; Properties in human cell systems mimicking various disease states [4]: anti-inflammatory and antifibrotic properties; Anemia [5]: attenuated; Cholesterol [5]: lowered; Inflammation [5]: lowered; Liver fibrosis [5]: attenuated; Triglycerides [5]: lowered

Which results are given for `CCCCCCCCCCCCCCC(=O)O[C@H](CC(=O)[O-])C[N+](C)(C)C` [Pentadecanoylcarnitine, pentadecanoylcarnitine]?
α-SM Actin biomarker change (MyoF cell system): −0.26 log 10; CXCL8/IL-8 biomarker change (BE3C cell system): −0.21 log 10; CXCL9/MIG biomarker change (BE3C cell system): −0.60 log 10; CXCL10/IP-10 biomarker change (BE3C cell system): −0.10 log 10; CXCL11/I-TAC biomarker change (BE3C cell system): −0.54 log 10; HLA-DR biomarker change (BE3C cell system): −0.63 log 10; IL-1a biomarker change (BE3C cell system): −0.19 log 10; MMP-1 biomarker change (BE3C cell system): −0.27 log 10; MMP-9 biomarker change (BE3C cell system): −0.34 log 10; PAI-1 biomarker change (BE3C cell system): −0.24 log 10; tPA biomarker change (BE3C cell system): −0.43 log 10; uPA biomarker change (BE3C cell system): −0.28 log 10; uPAR biomarker change (BE3C cell system): −0.12 log 10; MMP-1 biomarker change (HDF3CGF cell system): −0.12 log 10; Max Response (%) Compared to Positive Control (Histamine H2 receptor; Antagonist, positive control Tiotidine, 1 to 20 μM): 98%; IC50 (Histamine H2 receptor; [6]): 6.1 µM; Pharmacological activity at histamine H2 receptor (Histamine H2 receptor; at approximately 1 to 20 μM): antagonist; Max Response (%) Compared to Positive Control (Histamine H1 receptor; Antagonist, positive control Mepyramine, 1 to 20 μM): 71%; IC50 (Histamine H1 receptor; [7]): 10.9 µM; Pharmacological activity at histamine H1 receptor (Histamine H1 receptor; at approximately 1 to 20 μM): antagonist; Max Response (%) Compared to Positive Control (Dopamine receptor D1; Antagonist, positive control SCH 39166, 1 to 20 μM): 105%; IC50 (Dopamine receptor D1; [8]): 6.2 µM; Pharmacological activity at dopamine receptor D1 (Dopamine receptor D1; at approximately 1 to 20 μM): antagonist; CXCL10/IP-10 biomarker change (KF3CT cell system): −0.10 log 10; B-Cell Proliferation change (SAg cell system): −0.17 log 10; E-Selectin biomarker change (SAg cell system): −0.11 log 10; Proliferation change (CASM3C cell system): +0.10 log 10; MCP-1 biomarker change (/IMphg cell system): −0.25 log 10; sIL-10 biomarker change (/IMphg cell system): −0.13 log 10; VEGFR2 biomarker change (4H cell system): −0.11 log 10; Tissue Factor biomarker change (LPS cell system): +0.11 log 10

Reference: patent US12370166B2, “Pentadecanoylcarnitine for treatment of conditions related to the quality of aging and longevity” (EPITRACKER, INC., priority 2021, dated 2025)
